# Measurements taken from patent US9357779B2 (priority 2010, dated 2016).
# How the values were obtained:
# Phytophthora infestans = assay type: in vivo; settings: tomato plants, protective, active compound concentration 500 ppm, evaluation 7 days after inoculation
# [1] = for log P [a]: acidic range, pH 2.7, 0.1% aqueous formic acid/acetonitrile; for log P [a][d]: pH 2.7, major isomer; for log P [a][e]: pH 2.7, minor isomer
# Method: (§1) Calibration was carried out using unbranched alkan-2-ones (having from 3 to 16 carbon atoms) with known log P values (the log P values were determined by the retention times using linear interpolation between two successive alkanones).
# [2] = pH 2.7, log P [a], acidic range, pH 2.7, 0.1% aqueous formic acid/acetonitrile
# Method for physchem: as §1
compound,measurement,setting,value
"CON=C(CC1CCCCC1)c1csc(C2CCN(C(=O)Cn3nc(C(F)F)cc3C(F)F)CC2)n1 [Compound I-60, 2-[3,5-Bis(difluoromethyl)-1H-pyrazol-1-yl]-1-{4-[4-(2-cyclohexyl-N-methoxyethanimidoyl)-1,3-thiazol-2-yl]piperidin-1-yl}ethanone]",chromatographic logP,physchem; [2],4.8
same,efficacy,Phytophthora infestans,95%
"O=C(CCc1ccccc1)c1csc(C2CCNCC2)n1 [II-2, 4-[4-(3-Phenylpropanoyl)-1,3-thiazol-2-yl]piperidinium chloride]",chromatographic logP,physchem; pH 2.7,1.19
Cc1cc(C(F)(F)F)nn1CC(=O)N1CCC(c2nc(CCC(=O)c3ccccc3Cl)cs2)CC1 [Compound I-21],log P [a],[1],3.6^[a];
Cc1cc(C(F)(F)F)nn1CC(=O)N1CCC(c2nc(C(=O)Cc3ccccc3Br)cs2)CC1 [Compound I-13],log P [a],[1],3.67^[a];
Cc1cccc(C)c1C(=O)/C=C/c1csc(C2CCN(C(=O)Cn3nc(C(F)F)cc3C(F)F)CC2)n1 [Compound I-63],log P [a],[1],3.65^[a];
Cc1cc(C(F)(F)F)nn1CC(=O)N1CCC(c2nc(C#CC(=O)C3CCCCC3)cs2)CC1 [Compound I-4],log P [a],[1],4.15^[a]
"CCOc1ccccc1C(=O)C#Cc1csc(C2CCN(C(=O)Cn3nc(C(F)(F)F)cc3C)CC2)n1 [Compound I-11, 1-(2-Ethoxyphenyl)-3-[2-(1-{[5-methyl-3-(trifluoromethyl)-1H-pyrazol-1-yl]acetyl}piperidin-4-yl)-1,3-thiazol-4-yl]prop-2-yn-1-one]",chromatographic logP,physchem; pH 2.7,3.78
same,chromatographic logP,physchem; [2],3.76
COc1ccccc1C(=O)CCc1csc(C2CCN(C(=O)Cn3nc(C(F)(F)F)cc3C)CC2)n1 [Compound I-19],log P [a],[1],3.34^[a]
COc1ccc(C(=O)C#Cc2csc(C3CCN(C(=O)Cn4nc(C(F)(F)F)cc4C)CC3)n2)cc1 [Compound I-7],log P [a],[1],3.54^[a]
O=C(/C=C/c1csc(C2CCN(C(=O)Cn3nc(C(F)F)cc3C(F)F)CC2)n1)c1ccccc1 [Compound I-37],efficacy,Phytophthora infestans,95%
same,log P [a],[1],3.31^[a];
O=C(/C=C/c1csc(C2CCN(C(=O)Cn3nc(C(F)F)cc3C(F)F)CC2)n1)c1cccc(F)c1 [Compound I-41],efficacy,Phytophthora infestans,95%
same,log P [a],[1],3.48^[a]
COc1ccc(C(=O)/C=C/c2csc(C3CCN(C(=O)Cn4nc(C(F)F)cc4C(F)F)CC3)n2)c(F)c1 [Compound I-48],efficacy,Phytophthora infestans,94%
same,log P [a],[1],3.45^[a]
Cc1cc(C(F)(F)F)nn1CC(=O)N1CCC(c2nc(C#CC(=O)c3cccc4ccccc34)cs2)CC1 [Compound I-3],log P [a],[1],4.25^[a]
Cc1cc(C(F)(F)F)nn1CC(=O)N1CCC(c2nc(C#CC(=O)c3ccc(Cl)cc3Cl)cs2)CC1 [Compound I-6],log P [a],[1],4.31^[a]
Cc1cc(C(F)(F)F)nn1CC(=O)N1CCC(c2nc(C(=O)Cc3cccc4ccccc34)cs2)CC1 [Compound I-18],log P [a],[1],3.87^[a]
O=C(/C=C/c1c(F)cccc1F)c1csc(C2CCN(C(=O)Cn3nc(C(F)F)cc3C(F)F)CC2)n1 [Compound I-62],log P [a],[1],3.68^[a];
COc1ccccc1C(=O)C=C(Cl)c1csc(C2CCN(C(=O)Cn3nc(C(F)(F)F)cc3C)CC2)n1 (mixture of isomers) [Compound I-65],efficacy,Phytophthora infestans,93%
same,log P [a][d],[1],3.96^[a][d];
same,log P [a][e],[1],3.79^[a][e]
"O=C(CC1CCCCC1)c1csc(C2CCNCC2)n1 [II-1, 4-[4-(Cyclohexylacetyl)-1,3-thiazol-2-yl]piperidinium chloride]",chromatographic logP,physchem; pH 2.7,1.35
"CCOc1ccccc1C(=O)CCc1csc(C2CCN(C(=O)Cn3nc(C(F)(F)F)cc3C)CC2)n1 [Compound I-20, 1-(2-Ethoxyphenyl)-3-[2-(1-{[5-methyl-3-(trifluoromethyl)-1H-pyrazol-1-yl]acetyl}piperidin-4-yl)-1,3-thiazol-4-yl]propan-1-one]",chromatographic logP,physchem; [2],3.7
same,chromatographic logP,physchem; pH 7.8,3.68
"CC(C)(C)OC(=O)N1CCC(c2nc(C(O)CCc3ccccc3)cs2)CC1 (stereo not drawn) [XVI-1, tert-Butyl 4-[4-(1-hydroxy-3-phenylpropyl)-1,3-thiazol-2-yl]piperidine-1-carboxylate]",chromatographic logP,physchem; pH 2.7,3.79
Cc1cc(C(F)(F)F)nn1CC(=O)N1CCC(c2nc(C(Cl)=CC(=O)c3ccccc3)cs2)CC1 (mixture of isomers) [Compound I-26],log P [a],[1],4^[a]
"Cc1cc(C(F)(F)F)nn1CC(=O)N1CCC(c2nc(C(=O)/C=C/c3c(F)cccc3F)cs2)CC1 [Compound I-12, (2E)-3-(2,6-Difluorophenyl)-1-[2-(1-{[5-methyl-3-(trifluoromethyl)-1H-pyrazol-1-yl]acetyl}piperidin-4-yl)-1,3-thiazol-4-yl]prop-2-en-1-one]",chromatographic logP,physchem; [2],3.83
Cc1cc(C(F)(F)F)nn1CC(=O)N1CCC(c2nc(C(=O)CC3CCCCC3)cs2)CC1 [Compound I-17],log P [a],[1],4.13^[a];
"O=C(CC1CCCCC1)c1csc(C2CCN(C(=S)Cn3nc(C(F)F)cc3C(F)F)CC2)n1 [Compound I-58, 1-[2-(1-{2-[3,5-Bis(difluoromethyl)-1H-pyrazol-1-yl]ethanethioyl}piperidin-4-yl)-1,3-thiazol-4-yl]-2-cyclohexylethanone]",chromatographic logP,physchem; [2],4.63
same,chromatographic logP,physchem; pH 7.8,4.56
"CC(C)(C)OC(=O)N1CCC(c2nc(/C=C/C(=O)c3c(F)cccc3F)cs2)CC1 [IV-3, tert-Butyl 4-[4-[(1E)-3-(2,6-difluorophenyl)-3-oxoprop-1-en-1-yl]-1,3-thiazol-2-yl]piperidine-1-carboxylate]",chromatographic logP,physchem; pH 2.7,4.3
"C#Cc1csc(C2CCN(C(=O)Cn3nc(C(F)(F)F)cc3C)CC2)n1 [XX-1, 1-[4-(4-Ethynyl-1,3-thiazol-2-yl)piperidin-1-yl]-2-[5-methyl-3-(trifluoromethyl)-1H-pyrazol-1-yl]ethanone]",chromatographic logP,physchem; pH 2.7,2.61
Cc1cccc(CC(=O)c2csc(C3CCN(C(=O)Cn4nc(C(F)F)cc4C(F)F)CC3)n2)c1C [Compound I-59],log P [a],[1],3.71^[a]
CO/N=C(/Cc1cccc(C)c1C)c1csc(C2CCN(C(=O)Cn3nc(C(F)F)cc3C(F)F)CC2)n1 [Compound I-61],efficacy,Phytophthora infestans,95%
same,log P [a],[1],4.33^[a]
"Cc1cc(C(F)(F)F)nn1CC(=O)N1CCC(c2nc(C(=O)CCc3ccccc3)cs2)CC1 [Compound I-14, 1-[2-(1-{[5-Methyl-3-(trifluoromethyl)-1H-pyrazol-1-yl]acetyl}piperidin-4-yl)-1,3-thiazol-4-yl]-3-phenylpropan-1-one]",chromatographic logP,physchem; [2],3.64
COc1cccc(OC)c1C(=O)/C=C/c1csc(C2CCN(C(=O)Cn3nc(C(F)F)cc3C(F)F)CC2)n1 [Compound I-39],efficacy,Phytophthora infestans,90%
same,log P [a],[1],3.04^[a]
"CON(C)C(=O)c1csc(C2CCN(C(=O)OC(C)(C)C)CC2)n1 [Compound V-1, tert-Butyl 4-{4-[methoxy(methyl)carbamoyl]-1,3-thiazol-2-yl}piperidine-1-carboxylate]",chromatographic logP,physchem; pH 2.7,2.4
"C#Cc1csc(C2CCN(C(=O)OC(C)(C)C)CC2)n1 [VI-1, tert-Butyl 4-(4-ethynyl-1,3-thiazol-2-yl)piperidine-1-carboxylate]",chromatographic logP,physchem; pH 2.7,3.1
Cc1cc(C(F)(F)F)nn1CC(=O)N1CCC(c2nc(C#CC(=O)c3ccccc3Cl)cs2)CC1 [Compound I-5],log P [a],[1],3.79^[a]
Cc1cc(C(F)(F)F)nn1CC(=O)N1CCC(c2nc(C#CC(=O)C(C)(C)C)cs2)CC1 [Compound I-8],log P [a],[1],3.68^[a]
Cc1cc(C(F)(F)F)nn1CC(=O)N1CCC(c2nc(C#CC(=O)c3ccco3)cs2)CC1 [Compound I-10],log P [a],[1],2.92^[a]
COc1ccccc1C(=O)C#Cc1csc(C2CCN(C(=O)Cn3nc(C(F)(F)F)cc3C)CC2)n1 [Compound I-2],log P [a],[1],3.35^[a];
"CC(C)(C)OC(=O)N1CCC(c2nc(C(=O)CCc3ccccc3)cs2)CC1 [IV-2, tert-Butyl 4-[4-(3-phenylpropanoyl)-1,3-thiazol-2-yl]piperidine-1-carboxylate]",chromatographic logP,physchem; pH 2.7,4.54
CC(C)(C)C(=O)/C=C/c1csc(C2CCN(C(=O)Cn3nc(C(F)F)cc3C(F)F)CC2)n1 [Compound I-47],efficacy,Phytophthora infestans,94%
same,log P [a],[1],3.45^[a]
Cc1cc(C(F)(F)F)nn1CC(=O)N1CCC(c2nc(C(=O)CC(C)(C)c3ccccc3)cs2)CC1 [Compound I-15],log P [a],[1],4.08^[a]
Cc1cccc(C(=O)/C=C/c2csc(C3CCN(C(=O)Cn4nc(C(F)F)cc4C(F)F)CC3)n2)c1 [Compound I-38],efficacy,Phytophthora infestans,95%
same,log P [a],[1],3.64^[a];
C#CCOc1ccccc1C(C=Cc1csc(C2CCN(C(=O)Cn3nc(C(F)F)cc3C(F)F)CC2)n1)=NO (mixture of isomers) [Compound I-64],log P [a][d],[1],3.08^[a][d];
same,log P [a][e],[1],3.30^[a][e]
O=C(/C=C/c1csc(C2CCN(C(=O)Cn3nc(C(F)F)cc3C(F)F)CC2)n1)c1ccc(F)cc1 [Compound I-40],log P [a],[1],3.43^[a]
Cc1cc(C(F)(F)F)nn1CC(=O)N1CCC(c2nc(C#CC(=O)c3ccccc3)cs2)CC1 [Compound I-1],log P [a],[1],3.58^[a]
"CC(C)(C)OC(=O)N1CCC(c2nc(C(=O)CC3CCCCC3)cs2)CC1 [IV-1, tert-Butyl 4-[4-(cyclohexylacetyl)-1,3-thiazol-2-yl]piperidine-1-carboxylate]",chromatographic logP,physchem; pH 2.7,5.43
Cc1ccc(C)c(NC(=O)N2CCC(c3nc(/C=C/C(=O)c4c(F)cccc4F)cs3)CC2)c1 [Compound I-23],efficacy,Phytophthora infestans,70%
same,log P [a],[1],3.56^[a]
Cc1cc(C(F)(F)F)nn1CC(=O)N1CCC(c2nc(C(=O)Cc3ccccc3)cs2)CC1 [Compound I-16],efficacy,Phytophthora infestans,80%
same,log P [a],[1],3.36^[a]
Cc1cc(C(F)(F)F)nn1CC(=O)N1CCC(c2nc(C#CC(=O)c3cccs3)cs2)CC1 [Compound I-9],log P [a],[1],3.29^[a]
